7 molecules from patent US12496353B2, “Synergistic effects between auristatin-based antibody drug conjugates and inhibitors of the PI3K-AKT mTOR pathway” (SEAGEN INC., priority 2010, dated 2025) can be followed below.

One data set relates to 786-O cells. Put plainly: In vitro combination cytotoxicity (Cell Titer Glo, Chou-Talalay CI), 786-O. It is filed as cell-based. As to conditions: for interaction with the rapalogs temsirolimus, sirolimus, and everolimus / cytotoxicity of the drug alone: 786-O cell line; for interaction with the rapalogs temsirolimus, sirolimus, and everolimus: FIG. 2; for cytotoxicity of the drug alone: single drug; for effect on the cytotoxicity of h1F6-mcF: RCC cell lines (786-O and Caki-2 named in the sentence before). As for the experimental part: (§1) 786-O cells were cultured in Roswell Park Memorial Institute medium (RPMI) 1640+10% fetal bovine serum (FBS). Caki-1 cells were cultured in McCoy's 5A medium+10% FBS. Caki-2 cells were cultured in McCoy's 5A medium+2% FBS. 786-O, Caki-1, and Caki-2 cells (renal cell carcinoma cell lines) were all cultured at 37° C. with 5% CO2. L540cy cells were cultured in RPMI 1640+20% FBS. L428 cells were cultured in RPMI 1640+10% FBS. L540cy and L428 cell lines are Hodgkin lymphoma cell lines. Karpas-299 cells were cultured in RPMI 1640+10% FBS. The Karpas-299 cell line is an anaplastic large cell lymphoma cell (ALCL) line. HT cells were cultured in RPMI 1640+10% FBS. Raji 4RII cells (clone-11) were a gift from Francisco J. Hernandez-Ilizaliturri and cultured in RPMI 1640+10% FBS. HT and Raji 4RH cell lines are Non-Hodgkin lymphoma cell lines. Jeko-1 cells were cultured in RPMI-1640+10% FBS . Jeko-1 cell lines are mantle cell lymphoma cell lines.
Cells were plated in 100 μL growth media per well into black-sided clear-bottom 96-well plates. Next, 4× concentration working stocks of small molecule inhibitor and antibody drug conjugate were prepared, and then titrated as 2-fold serial dilutions producing 10-point dose curves. For the single drug conditions, 50 μL small molecule inhibitor or ADC or free auristatin was added to each well in quadruplicate with 50 μL of media producing a final volume of 200 μL per well. For the combination conditions, 50 μL small molecule inhibitor and 50 μL ADC or free auristatin dilution were added to the cells (overlaying the dose titrations of each drug: high to low) in quadruplicate producing a final volume of 200 μ, per well. Treated cells were incubated 96 hours at 37° C., 5% CO2. Cytotoxicity was measured by incubating with 100 μL Cell Titer Glo (Promega) solution for 1 hour, and then luminescence was measured on a Fusion HT plate reader (Perkin Elmer). Data was processed with Excel (Microsoft) and GraphPad (Prism) to produce dose response curves and calculate the fraction affected (f a) at each dose concentration. Then CalcuSyn (Biosoft) software was used to determine synergism, additivity, or antagonism for each drug combination using the median-effect equation of Chou-Talalay: D=Dm[fa/(1−fa)]^1/m Median-effect equation
(D) is the dose of the drug. (Dm) is the median-effect dose signifying the potency. This is determined by the x-intercept of the median-effect plot. (fa) is the fraction affected by the dose. (fu) is the fraction unaffected, (1−fa). (m) is an exponent signifying the sigmoidicity (shape) of the dose-effect curve. It is determined by the slope of the median-effect plot. The linear correlation coefficient “r” should be greater than or equal to 0.90. The drug concentration units are arbitrary.
Combination index (CI) values <0.9 indicate synergism, CI values 0.9-1.1 indicate additivity, and CI values >1.1 indicate antagonism.
Each combination study was repeated on separate days a total of n=3 times unless otherwise noted, and the mean combination index value reported with standard error of the mean (sem).

For the next data set, the system named is Caki-1 cells. Put plainly: In vitro combination cytotoxicity (Cell Titer Glo, Chou-Talalay CI), Caki-1. The class given is cell-based. As to conditions: Caki-1 cell line; FIG. 3. As for the experimental part:
as §1
(§2) Cells were plated in 100 μL growth media per well into black-sided clear-bottom 96-well plates. […] Cytotoxicity was measured by incubating with 100 μL Cell Titer Glo (Promega) solution for 1 hour, and then luminescence was measured on a Fusion HT plate reader (Perkin Elmer). […]
(§3) (D) is the dose of the drug. […] This is determined by the x-intercept of the median-effect plot. […] It is determined by the slope of the median-effect plot. […]
(In general: Cellular ATP, detected with luciferase, serves as a proxy for viable cell number.)

For data set [1], the system named is L428 cells. Put plainly: In vivo combination of cAC10-vcE and temsirolimus, B-like Hodgkin lymphoma murine xenograft. As to conditions: for Median Days to Triple Volume: L428 xenograft, cAC10-vcE 1.0 mg/kg q4dx4 ip, temsirolimus 20 mg/kg ip. Details: species or system NOD-SCID-gamma mice. As for the experimental part:
To test combination treatments in B-like Hodgkin lymphoma in vivo, a murine xenograft model was used. L428 cells were implanted into NOD-SCID-gamma mice (The Jackson Laboratory) to generate tumors. Tumors were grown to an average of 90 mm^3, then sorted into groups of 7 mice. Mice were not treated, treated with temsirolimus (20 mg/kg), treated with cAC10-vcE (1.0 mg/kg), or treated with cAC10-vcE and temsirolimus. The cAC10-vcE was administered q4dx4 ip. The temsirolimus was administered q4dx4 ip or q3dx6 ip. In the combination treatment, the cAC10-vcE was dosed 2 days before temsirolimus. Tumor volume was measured periodically for 120 days post initial dosing. Data was plotted as a Kaplan-Meier plot showing rate of tumor tripling. P-values were calculated using the Log-rank test to confirm statistical significance.

A further data set concerns Caki-2 cells. Put plainly: In vitro combination cytotoxicity (Cell Titer Glo, Chou-Talalay CI), Caki-2. It is filed as cell-based. The settings on record: Caki-2 cell line; single drug. As for the experimental part: as §1, §2, §3
The subject of data set [2] is L428 cells. Put plainly: In vivo combination of cAC10-vcE and everolimus, B-like Hodgkin lymphoma murine xenograft. As to conditions: for complete responses: L428 xenograft, day 61, groups of 10 mice, cAC10-vcE 1.0 mg/kg q4dx4 ip, everolimus 15 mg/kg po. The arrangement: species or system NOD-SCID-gamma mice. As to the method:
To test combination treatments in B-like Hodgkin lymphoma in vivo, a murine xenograft model was used. L428 cells were implanted into NOD-SCID-gamma mice (The Jackson Laboratory) to generate tumors. Tumors were grown to an average of 90 mm 3 , then sorted into groups of 10 mice. Mice were not treated, treated with everolimus (15 mg/kg), treated with cAC10 (1 mg/kg), treated with cAC10-vcE (1.0 mg/kg), treated with cAC10 and everolimus, or treated with cAC10-vcE and everolimus. The cAC10-vcE and cAC10 was administered q4dx4 ip. The everolimus was administered ql dx14 po.

The subject of another data set is HT cells. Put plainly: In vitro combination cytotoxicity (Cell Titer Glo, Chou-Talalay CI), HT. The class given is cell-based. The settings on record: HT cell line. As for the experimental part:
as §1, §2, §3

Non-standard residues stand in square brackets, D forms with d. Residues, ends and D or L forms follow the SMILES beside them. *: point of attachment. Dolaproine = CO[C@@H]([C@@H]1CCCN1)[C@@H](C)C(=O)O; Dil = CC[C@H](C)[C@H](NC)[C@@H](CC(=O)O)OC; X1 = C[C@@H](N*)[C@@H](O)c1ccccc1; NMeV = CN[C@H](C(=O)O)C(C)C

With `CC[C@H](C)[C@@H]([C@@H](CC(=O)N1CCC[C@H]1[C@H](OC)[C@@H](C)C(=O)N[C@H](C)[C@@H](O)c1ccccc1)OC)N(C)C(=O)[C@@H](NC(=O)[C@@H](NC)C(C)C)C(C)C` [MMAE, monomethyl auristatin E] (H-[NMeV]V[Dil][Dolaproine]-X1), the “interaction with the rapalogs temsirolimus, sirolimus, and everolimus” value in the data set with 786-O cells was “synergistic”. The “interaction with the rapalogs temsirolimus and sirolimus” value in the data set on Caki-1 cells is on record as “synergistic”.
As for `CO[C@H]1C[C@@H]2CC[C@@H](C)[C@@](O)(O2)C(=O)C(=O)N2CCCC[C@H]2C(=O)O[C@H]([C@H](C)C[C@@H]2CC[C@@H](OC(=O)C(C)(CO)CO)[C@H](OC)C2)CC(=O)[C@H](C)/C=C(\C)[C@@H](O)[C@@H](OC)C(=O)[C@H](C)C[C@H](C)/C=C/C=C/C=C/1C` [temsirolimus], the “Median Days to Triple Volume” value in the data set with L428 cells [1] was 56 days. For the same molecule, in the data set with Caki-2 cells, the “cytotoxicity of the drug alone” value was “not potent cytotoxic drugs except in the Caki-2 cell line grown in media with low FBS”. In addition, in the data set on 786-O cells, the “cytotoxicity of the drug alone” value is on record as “not potent cytotoxic drugs” and the “effect on the cytotoxicity of h1F6-mcF” value is listed as “potentiate the cytotoxicity of h1F6-mcF”.
Regarding `CO[C@H]1C[C@@H]2CC[C@@H](C)[C@@](O)(O2)C(=O)C(=O)N2CCCC[C@H]2C(=O)O[C@H]([C@H](C)C[C@@H]2CC[C@@H](OCCO)[C@H](OC)C2)CC(=O)[C@H](C)/C=C(\C)[C@@H](O)[C@@H](OC)C(=O)[C@H](C)C[C@H](C)/C=C/C=C/C=C/1C` [everolimus], the complete responses entry in the data set on L428 cells [2] was “no complete responses”.
For the molecule `CO[C@H]1C[C@@H]2CC[C@@H](C)[C@@](O)(O2)C(=O)C(=O)N2CCCC[C@H]2C(=O)O[C@H]([C@H](C)C[C@@H]2CC[C@@H](O)[C@H](OC)C2)CC(=O)[C@H](C)/C=C(\C)[C@@H](O)[C@@H](OC)C(=O)[C@H](C)C[C@H](C)/C=C/C=C/C=C/1C` [sirolimus, rapamycin], the “cytotoxicity of the drug alone” value is “not potent cytotoxic drugs except in the Caki-2 cell line grown in media with low FBS” in the data set with Caki-2 cells and “not potent cytotoxic drugs” in the data set on 786-O cells. Also, the “effect on the cytotoxicity of h1F6-mcF” value with 786-O cells is reported as “potentiate the cytotoxicity of h1F6-mcF”.
Take “cAC10-vcE: vc-MMAE (mc-vc-MMAE) antibody drug conjugate wherein the antibody is a chimeric AC10 (anti-CD30) antibody”: the “interaction with temsirolimus in delaying tumor growth in vivo” value in the data set with L428 cells [1] (B-like HL murine xenograft model, FIG. 5) is recorded as “synergistic”. Further, the “Median Days to Triple Volume” value in the data set on L428 cells [1] came to 52 days. In addition, the “interaction with everolimus in delaying tumor growth in vivo” value in the data set with L428 cells [2] (B-like HL murine xenograft model, FIG. 6) is on record as “synergistic”. Moreover, in the data set with L428 cells [2], the complete responses entry was “no complete responses”.

B1: hBU12-mcF (conjugate, chains of the INN, looked up)
VH: QVQLQESGPGLVKPSQTLSLTCTVSGGSISTSGMGVGWIRQHPGKGLEWIGHIWWDDDKRYNPALKSRVTISVDTSKNQFSLKLSSVTAADTAVYYCARMELWSYYFDYWGQGTLVTVSS
VL: EIVLTQSPATLSLSPGERATLSCSASSSVSYMHWYQQKPGQAPRLLIYDTSKLASGIPARFSGSGSGTDFTLTISSLEPEDVAVYYCFQGSVYPFTFGQGTKLEIK
modifications: maleimidocaproyl-MMAF (mcF) drug conjugate
As for B1, the “interaction with the rapalogs temsirolimus and sirolimus” value in the data set with HT cells is reported as “synergistic”.

B2: h1F6-mcF (conjugate, chains of the INN, looked up)
VH: QVQLVQSGAEVKKPGASVKVSCKASGYTFTNYGMNWVRQAPGQGLKWMGWINTYTGEPTYADAFKGRVTMTRDTSISTAYMELSRLRSDDTAVYYCARDYGDYGMDYWGQGTTVTVSS
VL: DIVMTQSPDSLAVSLGERATINCRASKSVSTSGYSFMHWYQQKPGQPPKLLIYLASNLESGVPDRFSGSGSGTDFTLTISSLQAEDVAVYYCQHSREVPWTFGQGTKVEIK
modifications: maleimidocaproyl-MMAF (mcF) drug conjugate
Take B2: the “interaction with the rapalogs temsirolimus, sirolimus, and everolimus” value with 786-O cells is “synergistic”. Moreover, in the data set with Caki-1 cells, the “interaction with the rapalogs temsirolimus and sirolimus” value was “synergistic”.
